# Test results published in ChEMBL document CHEMBL5532658 (Eur J Med Chem, 2024).
# pEC50, pIC50: −log10 of the molar value. Active and inactive are the calls of the source. The rule behind the calls is not given here.
# Key:
# [1] = target: Cyclin-dependent kinase 7 (Homo sapiens) (UniProt P50613); assay: Inhibition of CDK7 in human MDA-MB-453 cells assessed as decrease in Thr160 phosphorylation of CDK2 at 37 to 333 nM incubated for 24 hrs by Western blot substrate; format: cell-based; conditions: dose 37-333 nM
# [2] = target: T1, Cyclin-dependent kinase-like 5 (Homo sapiens) (UniProt O76039); assay: Inhibition of CDKL5 (unknown origin) at 1 uM by discoverX kinomescan assay
# T1 sequence (whole entry): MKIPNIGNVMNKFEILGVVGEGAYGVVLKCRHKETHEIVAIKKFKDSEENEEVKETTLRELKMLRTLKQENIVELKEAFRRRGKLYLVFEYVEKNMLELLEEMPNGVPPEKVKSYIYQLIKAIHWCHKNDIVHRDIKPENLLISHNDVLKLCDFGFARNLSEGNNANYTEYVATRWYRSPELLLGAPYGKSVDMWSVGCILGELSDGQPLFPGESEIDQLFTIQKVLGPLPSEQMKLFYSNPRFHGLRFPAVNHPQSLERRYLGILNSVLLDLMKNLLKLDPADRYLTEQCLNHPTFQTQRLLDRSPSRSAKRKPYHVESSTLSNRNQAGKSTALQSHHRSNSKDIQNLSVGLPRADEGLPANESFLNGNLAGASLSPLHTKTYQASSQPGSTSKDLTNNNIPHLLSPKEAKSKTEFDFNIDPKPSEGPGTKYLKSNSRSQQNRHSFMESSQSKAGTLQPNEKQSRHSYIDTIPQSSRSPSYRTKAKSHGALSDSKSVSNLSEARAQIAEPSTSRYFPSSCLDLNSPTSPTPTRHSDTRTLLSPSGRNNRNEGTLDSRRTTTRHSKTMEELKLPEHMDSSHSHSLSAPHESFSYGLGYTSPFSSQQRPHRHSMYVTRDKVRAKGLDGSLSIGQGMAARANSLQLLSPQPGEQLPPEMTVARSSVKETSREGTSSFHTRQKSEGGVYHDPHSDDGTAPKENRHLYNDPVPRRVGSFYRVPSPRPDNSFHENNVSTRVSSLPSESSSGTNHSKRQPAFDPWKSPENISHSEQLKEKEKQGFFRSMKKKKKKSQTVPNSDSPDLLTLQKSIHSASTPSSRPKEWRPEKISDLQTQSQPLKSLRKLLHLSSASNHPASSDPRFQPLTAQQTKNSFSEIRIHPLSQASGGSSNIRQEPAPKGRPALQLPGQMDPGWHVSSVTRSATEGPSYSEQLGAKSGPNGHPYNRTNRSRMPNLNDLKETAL
# [3] = tested on: MDA-MB-231; assay: Induction of cell cycle arrest in human MDA-MB-231 cells assessed as G0/G1 phase arrest at 12.3 to 1000 nM incubated for 24 hrs by PI staining based flow cytometry analysis; format: functional; conditions: dose 12.3-1000 nM
# [4] = AUC(0 to t) in CD1 mouse at 10 mg/kg, po measured upto 24 hrs by LC-MS/MS analysis; format: ADME, organism-based; conditions: in vivo
# [5] = tested on: MDA-MB-231; assay: Inhibition of RNA polymerase 2 C-terminal domain phosphorylation at Ser5 in heptad repeat in human MDA-MB-231 cells at 37 to 333 nM incubated for 24 hrs by Western blotting analysis; format: cell-based; conditions: dose 37-333 nM
# [6] = target: CDK7/Cyclin H/MNAT1 (Homo sapiens, UniProt P50613); assay: Inhibition of human His-tagged CDK7/cyclin H/MNAT1 expressed in baculovirus infected insect cells preincubated for 10 mins followed by substrate and ATP addition and measured after 60 mins by ADP-Glo kinase assay; design: species or system Insect cell
# [7] = tested on: MDA-MB-231; assay: Antiproliferative activity against human MDA-MB-231 cells incubated for 120 hrs by CCK-8 assay; format: functional, cell-based; conditions: MDA-MB-231, 120 h
# [8] = tested on: MDA-MB-453; assay: Downregulation of Rb protein phosphorylation at Ser795 in human MDA-MB-453 cells incubated for 24 hrs by Western blot analysis; format: functional, cell-based; conditions: dose 37-333 nM
# [9] = Clearance in CD1 mouse at 1 mg/kg, iv measured upto 24 hrs by LC-MS/MS analysis; format: ADME, organism-based; conditions: in vivo
# [10] = Metabolic stability in mouse liver microsomes assessed as half-life; format: ADME, Microsome
# [11] = tested on: MDA-MB-231; assay: Downregulation of Rb protein phosphorylation at Thr826 in human MDA-MB-231 cells incubated for 24 hrs by Western blot analysis; format: functional, cell-based; conditions: dose 37-333 nM
# [12] = target: Cyclin-dependent kinase 18 (Homo sapiens) (UniProt Q07002); assay: Inhibition of CDK18 (unknown origin) at 1 uM by discoverX kinomescan assay
# [13] = target: T2, Dual specificity mitogen-activated protein kinase kinase 5 (Homo sapiens) (UniProt Q13163); assay: Inhibition of MAP2K5 (unknown origin) assessed as remaining activity at 1 uM by discoverX kinomescan assay relative to control
# T2 sequence (whole entry): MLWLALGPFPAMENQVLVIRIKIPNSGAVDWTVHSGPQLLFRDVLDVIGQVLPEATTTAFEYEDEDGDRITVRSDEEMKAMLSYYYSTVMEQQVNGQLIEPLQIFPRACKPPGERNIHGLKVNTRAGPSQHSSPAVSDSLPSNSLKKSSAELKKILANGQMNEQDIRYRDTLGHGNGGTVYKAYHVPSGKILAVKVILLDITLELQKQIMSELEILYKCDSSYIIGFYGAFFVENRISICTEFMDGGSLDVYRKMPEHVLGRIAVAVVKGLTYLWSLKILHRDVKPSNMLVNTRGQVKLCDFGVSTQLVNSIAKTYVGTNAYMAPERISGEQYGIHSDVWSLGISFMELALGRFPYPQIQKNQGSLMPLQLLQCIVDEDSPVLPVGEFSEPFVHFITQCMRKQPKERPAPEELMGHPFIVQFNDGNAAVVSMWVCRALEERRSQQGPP
# [14] = tested on: MDA-MB-231; assay: Downregulation of Rb protein phosphorylation at Ser608 in human MDA-MB-231 cells incubated for 24 hrs by Western blot analysis; format: functional, cell-based; conditions: dose 37-333 nM
# [15] = Half life in CD1 mouse at 10 mg/kg, po measured upto 24 hrs by LC-MS/MS analysis; format: ADME, organism-based; conditions: in vivo
# [16] = AUC(0 to t) in CD1 mouse at 1 mg/kg, iv measured upto 24 hrs by LC-MS/MS analysis; format: ADME, organism-based; conditions: in vivo
# [17] = tested on: MDA-MB-453; assay: Induction of cell cycle arrest in human MDA-MB-453 cells assessed as G0/G1 phase arrest at 12.3 to 1000 nM incubated for 24 hrs by PI staining based flow cytometry analysis; format: functional; conditions: dose 12.3-1000 nM
# Sequence of Cyclin-dependent kinase 18 (Homo sapiens) (Q07002 whole entry): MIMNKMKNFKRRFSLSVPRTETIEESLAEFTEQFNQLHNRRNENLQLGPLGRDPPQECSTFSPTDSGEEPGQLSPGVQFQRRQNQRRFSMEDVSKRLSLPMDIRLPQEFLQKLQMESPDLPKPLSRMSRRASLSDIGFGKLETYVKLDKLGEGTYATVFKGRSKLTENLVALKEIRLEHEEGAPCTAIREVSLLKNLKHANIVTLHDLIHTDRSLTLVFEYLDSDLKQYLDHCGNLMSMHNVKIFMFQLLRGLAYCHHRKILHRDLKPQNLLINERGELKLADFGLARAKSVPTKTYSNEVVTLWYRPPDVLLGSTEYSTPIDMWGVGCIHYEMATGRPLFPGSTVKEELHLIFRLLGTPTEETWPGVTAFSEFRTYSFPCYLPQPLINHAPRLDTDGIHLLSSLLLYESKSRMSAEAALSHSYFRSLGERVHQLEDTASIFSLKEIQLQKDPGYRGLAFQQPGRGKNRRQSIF
# Sequence of CDK7/Cyclin H/MNAT1 (P51946 whole entry): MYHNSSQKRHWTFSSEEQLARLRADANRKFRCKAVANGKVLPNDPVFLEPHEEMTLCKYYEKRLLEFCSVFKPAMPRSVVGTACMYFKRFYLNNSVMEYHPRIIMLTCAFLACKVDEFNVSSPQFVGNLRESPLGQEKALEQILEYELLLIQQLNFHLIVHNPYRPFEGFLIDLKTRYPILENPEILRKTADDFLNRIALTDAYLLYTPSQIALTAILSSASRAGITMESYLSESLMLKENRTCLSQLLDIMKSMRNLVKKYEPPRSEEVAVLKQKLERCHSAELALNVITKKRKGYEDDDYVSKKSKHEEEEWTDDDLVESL
# Sequence of CDK7/Cyclin H/MNAT1 (P50613 whole entry): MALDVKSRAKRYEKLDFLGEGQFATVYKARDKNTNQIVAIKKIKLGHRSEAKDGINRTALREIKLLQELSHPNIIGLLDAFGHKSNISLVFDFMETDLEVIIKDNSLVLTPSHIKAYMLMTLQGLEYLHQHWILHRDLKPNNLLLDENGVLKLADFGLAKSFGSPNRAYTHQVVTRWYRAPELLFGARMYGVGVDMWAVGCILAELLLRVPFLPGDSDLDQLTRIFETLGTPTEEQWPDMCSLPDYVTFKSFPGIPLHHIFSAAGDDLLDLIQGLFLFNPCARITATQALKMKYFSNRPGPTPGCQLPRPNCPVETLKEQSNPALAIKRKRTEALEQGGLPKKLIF
# Sequence of CDK7/Cyclin H/MNAT1 (P51948 whole entry, further chain): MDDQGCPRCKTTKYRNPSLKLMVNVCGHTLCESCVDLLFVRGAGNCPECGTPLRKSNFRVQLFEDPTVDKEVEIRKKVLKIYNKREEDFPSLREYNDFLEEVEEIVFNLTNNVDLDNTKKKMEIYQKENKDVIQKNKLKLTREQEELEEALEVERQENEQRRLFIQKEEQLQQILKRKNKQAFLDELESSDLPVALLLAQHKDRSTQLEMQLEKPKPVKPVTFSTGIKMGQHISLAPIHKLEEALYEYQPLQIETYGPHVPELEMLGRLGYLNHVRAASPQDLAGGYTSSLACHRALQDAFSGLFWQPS
# Sequence of Cyclin-dependent kinase 7 (Homo sapiens) (P50613 whole entry): as the sequence (P50613 whole entry) above
compound,measurement,setting,value
CP(C)(=O)c1c(C#N)ccc2c(-c3nc(N[C@@H]4CNC[C@@H](F)C4)nc4ccsc34)c[nH]c12,inhibition,[1],Active
same,inhibition,[2],inactive
same,Activity,[3],Active
same,AUC(0-t) at 24 h,[4],513 ng·h/mL
same,inhibition,[5],Active
same,pIC50,[6],8.19
same,pEC50,[7],6.49
same,Activity,[8],Dose-Dependent Effect
same,clearance,[9],68.3 mL/min/kg
same,half-life,[10],0.85 h
same,Activity,[11],Dose-Dependent Effect
same,inhibition,[12],inactive
same,Activity,[13],< 1%
same,Activity,[14],Dose-Dependent Effect
same,half-life,[15],2.11 h
same,AUC(0-t) at 24 h,[16],230 ng·h/mL
same,Activity,[17],Active
